System: TXA2
Experiment: rabbit aortal strip model, test (a)
Type: cell-based
Settings: agonist TXA2 or U46619
Description: (a) The rabbit aortal strip model devised by Piper and Vane (Nature, 1969, 223, 29-35) using as agonist a freshly prepared sample of TXA2, generated by addition of arachidonic acid (25 μg) to citrated, platelet rich rabbit plasma (250 μl) and allowing the mixture to aggregate fully over 90 seconds before use; alternatively the TXA2 mimetic agent known as U46619 (described by R L Jones et alia, in "Chemistry, Biochemistry and Pharmacological Activity of Prostanoids" edited by S M Roberts and F Scheinmann, at page 211, Pergamon Press, 1979) may be used as the agonist;

CC1(C)O[C@@H](c2ccccc2O)[C@@H](C/C=C\CCCC(=O)O)CS1 (relative stereo) [Example 1, 5(Z)-7-(6-o-hydroxyphenyl-2,2-dimethyl-1,3-oxathian-cis-5-yl)heptenoic acid]
pA2 in test (a): 7.42
